# Reference: US20240376163A1, “PEPTIDE FOR INHIBITING CALCINEURIN AND USE THEREOF” (Seoul National University R&DB Foundation, priority 2023, published 2024)
# Tested on: Jurkat T cells
# Assay: mRNA sequencing of activated Jurkat T cells
# Assay type: cell-based, human
# Conditions: P + I
structure (smiles),measurement,setting,value
"C=CC[C@@H]1/C=C(\C)C[C@H](C)C[C@H](OC)[C@H]2O[C@@](O)(C(=O)C(=O)N3CCCC[C@H]3C(=O)O[C@H](/C(C)=C/[C@@H]3CC[C@@H](O)[C@H](OC)C3)[C@H](C)[C@@H](O)CC1=O)[C@H](C)C[C@@H]2OC [FK506, Tacrolimus, reference compound]",MSMO1 FPKM,Jurkat T cells,59.655 FPKM
same,MT2A FPKM,Jurkat T cells,369.658 FPKM
same,MXD3 FPKM,Jurkat T cells,17.861 FPKM
same,MYB FPKM,Jurkat T cells,58.524 FPKM
same,MZB1 FPKM,Jurkat T cells,22.015 FPKM
same,N4BP3 FPKM,Jurkat T cells,1.739 FPKM
same,NAA16 FPKM,Jurkat T cells,3.527 FPKM
same,NCKAP1 FPKM,Jurkat T cells,8.582 FPKM
same,NCOA3 FPKM,Jurkat T cells,9.949 FPKM
same,NDRG1 FPKM,Jurkat T cells,126.361 FPKM
same,NDRG2 FPKM,Jurkat T cells,2.881 FPKM
same,NEDD9 FPKM,Jurkat T cells,3.748 FPKM
same,NFATC1 FPKM,Jurkat T cells,3.793 FPKM
same,NFKB1 FPKM,Jurkat T cells,34.242 FPKM
same,NFKB2 FPKM,Jurkat T cells,49.22 FPKM
same,NLRC3 FPKM,Jurkat T cells,7.789 FPKM
same,NME4 FPKM,Jurkat T cells,16.395 FPKM
same,NOTCH2 FPKM,Jurkat T cells,10.308 FPKM
same,NOTCH3 FPKM,Jurkat T cells,0.902 FPKM
same,NPDC1 FPKM,Jurkat T cells,4.328 FPKM
same,NR4A3 FPKM,Jurkat T cells,1.927 FPKM
same,NREP FPKM,Jurkat T cells,9.925 FPKM
same,NRP1 FPKM,Jurkat T cells,14.572 FPKM
same,NSG1 FPKM,Jurkat T cells,4.302 FPKM
same,NSMF FPKM,Jurkat T cells,3.164 FPKM
same,NT5E FPKM,Jurkat T cells,8.91 FPKM
same,NTRK1 FPKM,Jurkat T cells,0.836 FPKM
same,ODC1 FPKM,Jurkat T cells,245.466 FPKM
same,OPTN FPKM,Jurkat T cells,12.958 FPKM
same,OSBPL5 FPKM,Jurkat T cells,3.354 FPKM
same,PAM FPKM,Jurkat T cells,1.483 FPKM
same,PCNA-AS1 FPKM,Jurkat T cells,70.937 FPKM
same,PDCD1 FPKM,Jurkat T cells,1.377 FPKM
same,PDGFA FPKM,Jurkat T cells,3.25 FPKM
same,PDGFC FPKM,Jurkat T cells,2.292 FPKM
same,PDIA6 FPKM,Jurkat T cells,123.669 FPKM
same,PDLIM1 FPKM,Jurkat T cells,6.874 FPKM
same,PELI2 FPKM,Jurkat T cells,11.262 FPKM
same,PEX5L FPKM,Jurkat T cells,1.428 FPKM
same,PHACTR2 FPKM,Jurkat T cells,2.927 FPKM
same,PHLDB2 FPKM,Jurkat T cells,3.898 FPKM
same,PI16 FPKM,Jurkat T cells,17.07 FPKM
same,PKIG FPKM,Jurkat T cells,12.411 FPKM
same,PKM FPKM,Jurkat T cells,1736.037 FPKM
same,PLAC8 FPKM,Jurkat T cells,3.158 FPKM
same,PLEC FPKM,Jurkat T cells,21.747 FPKM
same,PLS3 FPKM,Jurkat T cells,0.052 FPKM
same,POTEE FPKM,Jurkat T cells,1.42 FPKM
same,POU2AF1 FPKM,Jurkat T cells,2.274 FPKM
same,POU2F2 FPKM,Jurkat T cells,3.317 FPKM
same,PPIF FPKM,Jurkat T cells,50.291 FPKM
same,PPP1R15A FPKM,Jurkat T cells,77.478 FPKM
same,PPP1R16B FPKM,Jurkat T cells,29.659 FPKM
same,PRDM8 FPKM,Jurkat T cells,39.913 FPKM
same,PRNP FPKM,Jurkat T cells,39.685 FPKM
same,PSMB10 FPKM,Jurkat T cells,104.49 FPKM
same,PTPN6 FPKM,Jurkat T cells,20.906 FPKM
same,PTPN7 FPKM,Jurkat T cells,93.59 FPKM
same,PXYLP1 FPKM,Jurkat T cells,5.01 FPKM
same,QPRT FPKM,Jurkat T cells,13.402 FPKM
same,RAB37 FPKM,Jurkat T cells,2.455 FPKM
same,RASGRP1 FPKM,Jurkat T cells,4.464 FPKM
same,RASGRP2 FPKM,Jurkat T cells,3.002 FPKM
same,RB1 FPKM,Jurkat T cells,62.321 FPKM
same,RCBTB2 FPKM,Jurkat T cells,13.008 FPKM
same,RCOR2 FPKM,Jurkat T cells,1.361 FPKM
same,RGS2 FPKM,Jurkat T cells,3.365 FPKM
same,RHOU FPKM,Jurkat T cells,1.51 FPKM
same,RNF19A FPKM,Jurkat T cells,12.334 FPKM
same,RNF212 FPKM,Jurkat T cells,1.059 FPKM
same,RORA FPKM,Jurkat T cells,2.502 FPKM
same,RRAS2 FPKM,Jurkat T cells,18.257 FPKM
same,RTN4R FPKM,Jurkat T cells,2.449 FPKM
same,RUNX1 FPKM,Jurkat T cells,37.963 FPKM
same,RUNX3 FPKM,Jurkat T cells,23.624 FPKM
same,SASH3 FPKM,Jurkat T cells,59.349 FPKM
same,SBK1 FPKM,Jurkat T cells,9.239 FPKM
same,SCG2 FPKM,Jurkat T cells,159.394 FPKM
same,SCHIP1 FPKM,Jurkat T cells,1.535 FPKM
same,SEPT3 FPKM,Jurkat T cells,1.089 FPKM
same,SEPT6 FPKM,Jurkat T cells,55.091 FPKM
same,SEPT9 FPKM,Jurkat T cells,55.265 FPKM
same,SERINC5 FPKM,Jurkat T cells,3.184 FPKM
same,SERPINB8 FPKM,Jurkat T cells,23.788 FPKM
same,SERPINE2 FPKM,Jurkat T cells,3.936 FPKM
same,SERTAD1 FPKM,Jurkat T cells,16.162 FPKM
same,SGK1 FPKM,Jurkat T cells,76.683 FPKM
same,SH2D1A FPKM,Jurkat T cells,23.649 FPKM
same,SH2D2A FPKM,Jurkat T cells,20.658 FPKM
same,SH3TC1 FPKM,Jurkat T cells,1.562 FPKM
same,SIVA1 FPKM,Jurkat T cells,50.269 FPKM
same,SLAMF1 FPKM,Jurkat T cells,0.217 FPKM
same,SLAMF7 FPKM,Jurkat T cells,3.121 FPKM
same,SLAMF8 FPKM,Jurkat T cells,5.282 FPKM
same,SLC22A1 FPKM,Jurkat T cells,7.005 FPKM
same,SLC27A2 FPKM,Jurkat T cells,41.996 FPKM
same,SLC29A4 FPKM,Jurkat T cells,1.68 FPKM
same,SLC35E4 FPKM,Jurkat T cells,0.952 FPKM
same,SLC35G2 FPKM,Jurkat T cells,10.118 FPKM
same,SMAD1 FPKM,Jurkat T cells,4.873 FPKM
same,SMOX FPKM,Jurkat T cells,14.9 FPKM
same,SMPD1 FPKM,Jurkat T cells,20.599 FPKM
same,SORBS1 FPKM,Jurkat T cells,0.4 FPKM
same,SOX4 FPKM,Jurkat T cells,76.17 FPKM
same,SPINT1 FPKM,Jurkat T cells,1.948 FPKM
same,SPRY1 FPKM,Jurkat T cells,4.074 FPKM
same,SPRY4 FPKM,Jurkat T cells,9.613 FPKM
same,SPSB1 FPKM,Jurkat T cells,10.137 FPKM
same,SPTBN2 FPKM,Jurkat T cells,2.135 FPKM
same,SRGN FPKM,Jurkat T cells,10.812 FPKM
same,SSBP2 FPKM,Jurkat T cells,7.127 FPKM
same,ST3GAL6 FPKM,Jurkat T cells,4.018 FPKM
same,STAT2 FPKM,Jurkat T cells,37.805 FPKM
same,STAT3 FPKM,Jurkat T cells,83.385 FPKM
same,STAU2 FPKM,Jurkat T cells,7.124 FPKM
same,STMN3 FPKM,Jurkat T cells,10.423 FPKM
same,STX1A FPKM,Jurkat T cells,16.1 FPKM
same,SYK FPKM,Jurkat T cells,7.044 FPKM
same,TAGAP FPKM,Jurkat T cells,4.352 FPKM
same,TAL1 FPKM,Jurkat T cells,22.337 FPKM
same,TAP2 FPKM,Jurkat T cells,5.187 FPKM
same,TAPBPL FPKM,Jurkat T cells,19.59 FPKM
same,TBC1D4 FPKM,Jurkat T cells,12.549 FPKM
same,TBC1D5 FPKM,Jurkat T cells,4.088 FPKM
same,TBKBP1 FPKM,Jurkat T cells,16.894 FPKM
same,TCF3 FPKM,Jurkat T cells,39.165 FPKM
same,TCF7 FPKM,Jurkat T cells,13.065 FPKM
same,TCF12 FPKM,Jurkat T cells,34.798 FPKM
same,TDRD9 FPKM,Jurkat T cells,1.245 FPKM
same,TGFBR2 FPKM,Jurkat T cells,36.615 FPKM
same,THEM6 FPKM,Jurkat T cells,3.232 FPKM
same,THEMIS FPKM,Jurkat T cells,33.406 FPKM
same,TIAF1 FPKM,Jurkat T cells,12.479 FPKM
same,TIAM1 FPKM,Jurkat T cells,8.466 FPKM
same,TIAM2 FPKM,Jurkat T cells,0.27 FPKM
same,TLE1 FPKM,Jurkat T cells,1.864 FPKM
same,TMCC3 FPKM,Jurkat T cells,4.527 FPKM
same,TNFAIP3 FPKM,Jurkat T cells,25.168 FPKM
same,TNFRSF10B FPKM,Jurkat T cells,25.474 FPKM
same,TNFSF10 FPKM,Jurkat T cells,24.883 FPKM
same,TNFSF14 FPKM,Jurkat T cells,1.023 FPKM
same,TPM4 FPKM,Jurkat T cells,202.311 FPKM
same,TPST2 FPKM,Jurkat T cells,21.077 FPKM
same,TRAF3IP3 FPKM,Jurkat T cells,15.012 FPKM
same,TRIB1 FPKM,Jurkat T cells,5.422 FPKM
same,TRIM21 FPKM,Jurkat T cells,45.856 FPKM
same,TTLL1 FPKM,Jurkat T cells,3.69 FPKM
same,UBE2L6 FPKM,Jurkat T cells,164.565 FPKM
same,UHRF1 FPKM,Jurkat T cells,8.288 FPKM
same,VAMP1 FPKM,Jurkat T cells,14.793 FPKM
same,VAT1 FPKM,Jurkat T cells,44.696 FPKM
same,VAV1 FPKM,Jurkat T cells,30.218 FPKM
same,WARS FPKM,Jurkat T cells,105.541 FPKM
same,WDR76 FPKM,Jurkat T cells,8.368 FPKM
same,XCL1 FPKM,Jurkat T cells,0 FPKM
same,XCL2 FPKM,Jurkat T cells,0 FPKM
same,XIRP1 FPKM,Jurkat T cells,6.348 FPKM
same,XRCC6BP1 FPKM,Jurkat T cells,9.744 FPKM
same,YPEL1 FPKM,Jurkat T cells,5.628 FPKM
same,ZFP36L1 FPKM,Jurkat T cells,153.648 FPKM
same,ZFP36L2 FPKM,Jurkat T cells,13.343 FPKM
same,ZNF280D FPKM,Jurkat T cells,2.345 FPKM
same,ZNF367 FPKM,Jurkat T cells,2.354 FPKM
same,ZNF480 FPKM,Jurkat T cells,7.174 FPKM
same,ZNF521 FPKM,Jurkat T cells,2.011 FPKM
same,ZNF652 FPKM,Jurkat T cells,2.631 FPKM
same,ZNF704 FPKM,Jurkat T cells,0.014 FPKM
same,ZNF827 FPKM,Jurkat T cells,1.521 FPKM
same,ZNFX1 FPKM,Jurkat T cells,16.708 FPKM
same,ZP4 FPKM,Jurkat T cells,0.462 FPKM
same,ZYX FPKM,Jurkat T cells,127.794 FPKM
same,ADORA2A FPKM,,0.998 FPKM
same,AGK FPKM,,14.029 FPKM
same,ARHGEF3 FPKM,,8.637 FPKM
same,ASAP1 FPKM,,7.765 FPKM
same,ATG14 FPKM,,7.863 FPKM
same,ATP6V1B2 FPKM,,50.672 FPKM
same,BCL2L1 FPKM,,39.402 FPKM
same,C3 FPKM,,0.489 FPKM
same,C10orf54 FPKM,,0.382 FPKM
same,CABP1 FPKM,,1.201 FPKM
same,CCDC64 FPKM,,10.044 FPKM
same,CCL1 FPKM,,0 FPKM
same,CCL3 FPKM,,0 FPKM
same,CCL3L1 FPKM,,0 FPKM
same,CCL3L3 FPKM,,0 FPKM
same,CCL4 FPKM,,0 FPKM
same,CCL4L1 FPKM,,0.087 FPKM
same,CCL4L2 FPKM,,0.087 FPKM
same,CCL20 FPKM,,0 FPKM
same,CCND2 FPKM,,0.558 FPKM
same,CD27-AS1 FPKM,,5.11 FPKM
same,CD27 FPKM,,3.098 FPKM
same,CD55 FPKM,,6.015 FPKM
same,CD70 FPKM,,3.005 FPKM
same,CD97 FPKM,,19.394 FPKM
same,CD200 FPKM,,0 FPKM
same,COL27A1 FPKM,,4.463 FPKM
same,CREB5 FPKM,,0.577 FPKM
